In the RepoRT retention time repository:

Assay: A: acetonitrile + 0.1% formic acid + 10 mM ammonium formate; B: 5% water + 95% acetonitrile + 0.1% formic acid + 10 mM ammonium formate; gradient (min/%B) 0/10 2/10 22/100 27/100 27.1/10
Conditions: stereoisomer not certain

SMILES | LC retention time
CCC=CCC1C(=O)CCC1CC(=O)OC (mixture of isomers) [Methyl Jasmonate (mixture of isomers)] | 0.421 min
COc1ccc2[nH]cc(CC(N)C(=O)O)c2c1 (racemic) [5-Methoxy-DL-tryptophan] | 4.49 min
CC(C)NCC(O)COc1cccc2ccccc12 (racemic) [(+/-)-Propranolol] | 1.21 min
CCN1CCCC1CNC(=O)c1cc(S(N)(=O)=O)ccc1OC (racemic) [(+/-)-Sulpiride] | 2.67 min
COc1ccc(CCN(C)CCCC(C#N)(c2ccc(OC)c(OC)c2)C(C)C)cc1OC (racemic) [(+/-)-Verapamil] | 0.815 min
NCC(N)C(=O)O (racemic) [DL-2,3-Diaminopropionic acid] | 7.79 min
NCC(O)CCC(N)C(=O)O (racemic) [DL-5-Hydroxylysine] | 7.93 min
NC(=O)CCCCC1CCSS1 (racemic) [DL-6,8-Thioctamide] | 0.473 min
NC(CCS)C(=O)O (racemic) [DL-Homocysteine] | 5.69 min
O=C(O)C(O)Cc1c[nH]c2ccccc12 (racemic) [DL-Indole-3-lactic acid] | 0.968 min
CC(C)C(N)CC(=O)O (racemic) [DL-beta-Leucine] | 5.29 min
NC(Cc1cccc(O)c1)C(=O)O (racemic) [DL-m-Tyrosine] | 5.38 min
CC(=O)NC(Cc1c[nH]c2ccccc12)C(=O)O (racemic) [N-Acetyl-DL-Tryptophan] | 1.32 min
CC(=O)NC(CO)C(=O)O (racemic) [N-Acetyl-DL-serine] | 5.82 min
CC(C)CCCC(C)C1CCC2C3CCC4=CC(=O)CCC4(C)C3CCC12C (single isomer, unassigned; (+)) [(+)-4-Cholesten-3-one] | 0.407 min
O=c1[nH]c(=O)n(C2CC(O)C(CO)O2)cc1I (single isomer, unassigned; (+)) [(+)-5-Iodo-2'-deoxyuridine] | 0.729 min

SMILES | LC retention time
C=C(C)C1CCC2=CC(=O)CC(C)C2(C)C1 (single isomer, unassigned; (+)) [(+)-Nootkatone] | 0.417 min
CC(C)(CO)C(O)C(=O)NCCC(=O)O (single isomer, unassigned; (+)) [(+)-Pantothenic acid] | 2.17 min
CC(C)=CCCC(C)CC=O (single isomer, unassigned; (-)) [(-)-Citronellal] | 0.405 min
CC1=CCC2CC1C2(C)C (single isomer, unassigned; (-)) [(-)-alpha-Pinene] | 0.438 min
CCCCCCCCCCCCCC(=O)OCC(COP(=O)(O)OCCN)OC(=O)CCCCCCCCCCCCC (configuration not stated) [1,2-Dimyristoyl-sn-glycero-3-phosphoethanolamine] | 2.44 min
CCCCCCCCCCCCCCCC(=O)OCC(COP(=O)(O)O)OC(=O)CCCCCCCCCCCCCCC (configuration not stated) [1,2-Dipalmitoyl-sn-glycero-3-phosphate] | 2.45 min
COc1cc(OC)cc(OC)c1 [1,3,5-Trimethoxybenzene] | 0.423 min
Cn1c(=O)[nH]c2ncn(C)c2c1=O [1,7-dimethylxanthine] | 0.655 min
O=C(O)CCCCCCCCCCCC(=O)O [1,11-Undecanedicarboxylic acid] | 0.554 min
NC12CC3CC(CC(C3)C1)C2 [1-Aminoadamantane] | 2.36 min
NC1(C(=O)O)CC1 [1-Aminocyclopropanecarboxylic acid] | 6.03 min
c1coc(Cn2cccc2)c1 [1-Furfurylpyrrole] | 0.425 min
C[n+]1cccc(C(=N)[O-])c1 [1-Methylnicotinamide] | 4.68 min
Cn1c(=O)[nH]c2[nH]c(=O)[nH]c2c1=O [1-Methyluric acid] | 3.32 min
Nc1ncnc2c1ncn2C1CC(O)C(CO)O1 (configuration not stated) [2'-Deoxyadenosine] | 1.39 min
Nc1ccn(C2CC(O)C(CO)O2)c(=O)n1 (configuration not stated) [2'-Deoxycytidine] | 3.51 min
